These results are taken from patent US12162819B2, “Ionizable lipid compounds” (Beijing Jitai Pharmaceutical Technology Co., Ltd., priority 2022, dated 2024).

Series [1] in a line: Particle size and PDI of lipid nanoparticles by dynamic light scattering. The series is classed as physicochemical. To be noted: lipid nanoparticle with the cationic lipid, cholesterol, DSPC, DMG-PEG2000 (50/38.5/10/1.5 mol%), luciferase mRNA, N/P 6. As to the method:
(§1) Lipid nanoparticles were prepared by (1) dissolving and mixing ionizable lipid compounds, cholesterol, phospholipids and polyethylene glycolated lipids in ethanol at (molar percentages) 50%, 38.5%, 10% and 1.5%, respectively; (2) dissolving the mRNA active ingredient in 25 mM sodium acetate solution (pH=4.5); (3) using an automated high-throughput microfluidic system to mix the organic phase containing the lipid mixture and the aqueous phase containing the mRNA component in the flow ratio range of 1:1 to 1:4 at a mixing speed of 10 mL/min to 18 mL/min; (4) the prepared lipid nanoparticles (N/P ratio of 6) were diluted with phosphate buffer solution and the nanoparticle solutions were ultrafiltered to the original preparation volume using ultrafiltration tubes (purchased from Millipore) with a cut-off molecular weight of 30 kDa; and (5) the obtained nanoparticles were filtered through a sterile 0.2 μm filter membrane and then stored in a sealed glass vial at low temperature.
(§2) The particle size and particle size dispersity index (PDI) of the prepared lipid nanoparticles were measured using a Zetasizer Pro (purchased from Malvern Instruments Ltd) and a DynaPro NanoStar (purchased from Wyatt) dynamic light scattering instrument. The degree of RNA encapsulation by lipid nanoparticles was characterized by the Encapsulation Efficiency %, which reflects the degree of binding of lipid nanoparticles to RNA fragments. This parameter was measured by the method of Quant-It™ RiboGreen RNA Assay (purchased from Invitrogen). Lipid nanoparticle samples were diluted in TE buffer (10 mM Tris-HCl, 1 mM EDTA, pH=7.5). A portion of the sample solution was removed, to which 0.5% Triton (Triton X-100) was added, and then allowed to stand at 37° C. for 30 minutes. Immediately after the addition of RIBOGREEN® reaction solution, the fluorescence values were read on a Varioskan LUX multifunctional microplate reader (purchased from Thermofisher) at 485 nm for absorption and 528 nm for emission to give the encapsulation efficiency values.

A short description of series [2]: Encapsulation efficiency of lipid nanoparticles, Quant-It RiboGreen RNA Assay. The class given is physicochemical. Particulars: lipid nanoparticle with the cationic lipid, luciferase mRNA. As to the method: as §1, §2
Another series relates to C57BL/6 mice. In words: In vivo bioluminescence assay of lipid nanoparticles encapsulated with luciferase mRNA in mice. To be noted: C57BL/6 mice, intravenous, single dose 0.5 mg/kg luciferase mRNA in LNP, 6 h after administration, group mean. As to the method: as §1
The delivery effect and safety of nanoparticles encapsulated with luciferase mRNA (Trilink, L-7202) in mice were evaluated. The test mice were SPF-grade C57BL/6 mice, female, 6-8 weeks old, weighing 18-22 g, and were purchased from SPF (Beijing) Biotechnology Co., Ltd. All animals were acclimatized for more than 7 days prior to the experiment, and had free access to food and water during the experiment. The conditions include alternating light and dark for 12/12 h, the indoor temperature of 20-26° C. and the humidity of 40-70%. The mice were randomly grouped. The lipid nanoparticles encapsulated with luciferase mRNA prepared above were injected into mice by intravenous administration at a single dose of 0.5 mg/kg mRNA, and the mice were subjected to in vivo bioluminescence assay using a Small Animal In Vivo Imaging System (IVIS LUMINA III, purchased from PerkinElmer) at 6 h after administration. The assay was performed as follows: D-luciferin solution was prepared in saline at a concentration of 15 mg/mL, and each mouse was given the substrate by intraperitoneal injection. At ten minutes after administration of the substrate, the mice were anesthetized in an anesthesia chamber with isoflurane at a concentration of 2.5%. The anesthetized mice were placed in IVIS for fluorescence imaging, and data acquisition and analysis were performed on the concentrated distribution area of fluorescence.
The in vivo delivery efficiency of lipid nanoparticle carriers was expressed as the mean values of fluorescence intensity and total photon count in different animals within the same subject group, as shown in Table 5. Higher values of fluorescence intensity and total photon count indicate higher in vivo delivery efficiency of this mRNA fragment by lipid nanoparticles. The lipid nanoparticles containing the cationic lipids of the present disclosure have good in vivo delivery efficiency.

For the molecule `CCCCCCCCCCNC(=O)C(C)(C)CCCCCC(CCCCCC(C)(C)C(=O)NCCCCCCCCCC)OC(=O)CN(C)C` [Compound 13], in series [1], the “Particle size (nm)” value stood at 157.10 nm and the “Particle size dispersity (PDI)” value came out at 0.08. Also, in series [2], the “Encapsulation efficiency (%)” value amounted to 56.65%. In the series with C57BL/6 mice, the “Total photon count in vivo at 6 hours after administration (Total Flux)” value (shortened to “Total photon count in vivo at 6 hours”) is 1.08E+06.
Consider `CCCCCCCCCCNC(=O)C(C)(C)CCCCCC(CCCCCC(C)(C)C(=O)NCCCCCCCCCC)OC(=O)CCCN(C)C` [Compound 14], for which, in series [1], the “Particle size (nm)” value was found to be 306.07 nm and the “Particle size dispersity (PDI)” value came to 0.08. Besides, in series [2], the “Encapsulation efficiency (%)” value came out at 45.66%. Besides, the “Total photon count in vivo at 6 hours” value in the series on C57BL/6 mice stood at 6.34E+07.
Turning to `CCCCCCCCN(CCCCCCCC)CCOC(=O)C(C)(C)CCCCCC(CCCCCC(C)(C)C(=O)OCCN(CCCCCCCC)CCCCCCCC)OC(=O)CCN(C)C` [Compound 15], in series [1], the “Particle size (nm)” value is on record as 91.68 nm and the “Particle size dispersity (PDI)” value worked out at 0.06. In addition, in series [2], the “Encapsulation efficiency (%)” value was 84.78%. For the same molecule, the “Total photon count in vivo at 6 hours” value in the series with C57BL/6 mice is reported as 4.89E+08.
With `CCCCCCCCC(CCCCCC)OC(=O)C(C)(C)CCCCCC(CCCCCC(C)(C)C(=O)OC(CCCCCC)CCCCCCCC)OC(=O)CCN(C)C` (stereo not shown) [Compound 16], in series [1], the “Particle size (nm)” value is listed as 55.39 nm and the “Particle size dispersity (PDI)” value is 0.05. Moreover, the “Encapsulation efficiency (%)” value in series [2] is on record as 96.52%. For the same molecule, the “Total photon count in vivo at 6 hours” value in the series with C57BL/6 mice amounted to 3.97E+07.
For `CCCCCCCCCCSC(=O)C(C)(C)CCCCCC(CCCCCC(C)(C)C(=O)SCCCCCCCCCC)OC(=O)C1CCN(C)CC1` [Compound 104], in series [1], the “Particle size (nm)” value amounted to 71.14 nm and the “Particle size dispersity (PDI)” value stood at 0.06. In addition, in series [2], the “Encapsulation efficiency (%)” value worked out at 85.54%.
As for `CCCCCCCCCCSC(=O)C(C)(C)CCCCCC(CCCCCC(C)(C)C(=O)SCCCCCCCCCC)OC(=O)C1CCN(C(C)C)CC1` [Compound 105], in series [1], the “Particle size (nm)” value was 78.80 nm and the “Particle size dispersity (PDI)” value is 0.05. Besides, the “Encapsulation efficiency (%)” value in series [2] stood at 94.67%.
Regarding `CCCCCCCCCSC(=O)C(C)(C)CCCCCC(CCCCCC(C)(C)C(=O)SCCCCCCCCC)OC(=O)C1CCN(C)CC1` [Compound 106], in series [1], the “Particle size (nm)” value was 83.09 nm and the “Particle size dispersity (PDI)” value worked out at 0.05. In series [2], the “Encapsulation efficiency (%)” value stood at 85.65%.
As to `CCCCCCCCCSC(=O)C(C)(C)CCCCCC(CCCCCC(C)(C)C(=O)SCCCCCCCCC)OC(=O)C1CCN(C(C)C)CC1` [Compound 107], in series [1], the “Particle size (nm)” value was 99.54 nm and the “Particle size dispersity (PDI)” value turned out to be 0.05. For the same molecule, the “Encapsulation efficiency (%)” value in series [2] turned out to be 83.74%.
As for `CCCCCCCCCSC(=O)C(C)(C)CCCCCC(CCCCCC(C)(C)C(=O)SCCCCCCCCC)OC(=O)CC1CCN(C)CC1` [Compound 108], in series [1], the “Particle size (nm)” value was found to be 121.41 nm and the “Particle size dispersity (PDI)” value came to 0.05. The “Encapsulation efficiency (%)” value in series [2] was 92.63%.
`CCCCCCCCCSC(=O)C(C)(C)CCCCCC(CCCCCC(C)(C)C(=O)SCCCCCCCCC)OC(=O)CC1CCN(CC)CC1` [Compound 109]: in series [1], the “Particle size (nm)” value came to 101.04 nm and the “Particle size dispersity (PDI)” value is 0.06. For the same molecule, the “Encapsulation efficiency (%)” value in series [2] was determined as 87.11%.
For the molecule `CCCCCCCCCOC(=O)C(C)(C)CCCCCC(CCCCCC(C)(C)C(=O)OCC(CCCCC)CCCCCCC)OC(=O)CC1CCN(C)CC1` (stereo not shown) [Compound 111], in series [1], the “Particle size (nm)” value is 141.30 nm and the “Particle size dispersity (PDI)” value was found to be 0.06. In addition, in series [2], the “Encapsulation efficiency (%)” value stood at 95.12%.
For `CCCCCCCCCSC(=O)C(C)(C)CCCCCC(CCCCCC(C)(C)C(=O)OCC(CCCCC)CCCCCCC)OC(=O)CC1CCN(C)CC1` (stereo not shown) [Compound 112], in series [1], the “Particle size (nm)” value is recorded as 121.05 nm and the “Particle size dispersity (PDI)” value is 0.08. The “Encapsulation efficiency (%)” value in series [2] is given as 94.41%.
Regarding `CCCCCCCC#CCOC(=O)C(C)(C)CCCCCC(CCCCCC(C)(C)C(=O)OCCCC(CCCCC)CCCCC)OC(=O)CCCN(C)C` (stereo not shown) [Compound 115], in series [1], the “Particle size (nm)” value is given as 77.12 nm and the “Particle size dispersity (PDI)” value worked out at 0.04. Moreover, the “Encapsulation efficiency (%)” value in series [2] was 91.76%.
Turning to `CCCCCCCC#CCOC(=O)C(C)(C)CCCCCC(CCCCCC(C)(C)C(=O)OCC(CCCCC)CCCCCCC)OC(=O)CCCN(C)C` (stereo not shown) [Compound 116], in series [1], the “Particle size (nm)” value was 88.62 nm and the “Particle size dispersity (PDI)” value worked out at 0.05. Also, in series [2], the “Encapsulation efficiency (%)” value was 89.36%.
Regarding `CCCCC(CC#CCOC(=O)C(C)(C)CCCCCC(CCCCCC(C)(C)C(=O)OCC#CCC(CCCC)CCCC)OC(=O)CCCN(C)C)CCCC` [Compound 117], in series [1], the “Particle size (nm)” value came out at 127.31 nm and the “Particle size dispersity (PDI)” value amounted to 0.06. Besides, in series [2], the “Encapsulation efficiency (%)” value was 95.29%.
Take `CCCCCCCCCOC(=O)C(C)(C)CCCCCC(CCCCCC(C)(C)C(=O)OCC#CC(CCCCCC)CCCCCC)OC(=O)CCCN(C)C` (stereo not shown) [Compound 118]: in series [1], the “Particle size (nm)” value is given as 88.33 nm and the “Particle size dispersity (PDI)” value stood at 0.07. The “Encapsulation efficiency (%)” value in series [2] stood at 93.87%.
On the same counts, the results for `CCCCCCCCCOC(=O)C(C)(C)CCCCC(CCCCC(C)(C)C(=O)OCC(CCCCC)CCCCCCC)OC(=O)CCCN(C)C` (stereo not shown) [Compound 122] are 96.72 nm, 0.07 and 91.76%.
Regarding `CCCCCCCCCCOC(=O)C(C)(C)CCCCC(CCCCC(C)(C)C(=O)OCC(CCCCC)CCCCCCC)OC(=O)CCCN(C)C` (stereo not shown) [Compound 123], in series [1], the “Particle size (nm)” value came to 84.98 nm and the “Particle size dispersity (PDI)” value is 0.05. In addition, in series [2], the “Encapsulation efficiency (%)” value is 92.27%.
The matching figures for `CCCCCCCCCOC(=O)C(C)(C)CCCCCCC(CCCCCCC(C)(C)C(=O)OCC(CCCCC)CCCCCCC)OC(=O)CCCN(C)C` (stereo not shown) [Compound 125]: 95.69 nm, 0.07 and 89.45%.
In the case of `CCCCCCCCCOC(=O)C(C)(C)CCCCCCC(CCCCCCC(C)(C)C(=O)OCC(CCCCC)CCCCCCC)OC(=O)CCCCN(C)C` (stereo not shown) [Compound 126], in series [1], the “Particle size (nm)” value was 133.76 nm and the “Particle size dispersity (PDI)” value came out at 0.06. In series [2], the “Encapsulation efficiency (%)” value is given as 94.35%.
Take `CCCCCCC(CCCCCC)CCOC(=O)CCC(C)(C)CCCC(CCCC(C)(C)CCC(=O)OCCC(CCCCCC)CCCCCC)OC(=O)CCCN(C)C` [Compound 128]: in series [1], the “Particle size (nm)” value was determined as 83.10 nm and the “Particle size dispersity (PDI)” value is reported as 0.05. The “Encapsulation efficiency (%)” value in series [2] is 79.88%.
For `CCCCCCCC(CCCCCCC)COC(=O)CCC(C)(C)CCCC(CCCC(C)(C)CCC(=O)OCC(CCCCCCC)CCCCCCC)OC(=O)CCCN(C)C` [Compound 129], in series [1], the “Particle size (nm)” value came out at 112.08 nm and the “Particle size dispersity (PDI)” value amounted to 0.06. For the same molecule, the “Encapsulation efficiency (%)” value in series [2] turned out to be 57.87%.
On to `CCCCCCCCCOC(=O)CCCCCCC(CCCCCCC(=O)OCCCCCCCCC)OC(=O)CCCN(C)C` [Compound D1, reference compound], for which, in series [1], the “Particle size (nm)” value is 131.2 nm and the “Particle size dispersity (PDI)” value was found to be 0.18. Moreover, the “Encapsulation efficiency (%)” value in series [2] stood at 97.08%.
On the same counts, the results for `CCCCCCCCCOC(=O)CCCCCCC(CCCCCCC(=O)OCC(CCCCC)CCCCCCC)OC(=O)CCCN(C)C` (stereo not shown) [Compound D2, reference compound] are 245.33 nm, 0.20 and 79.63%.
